The text below walks through data of patent publication US11241480B2, “Methods for modulation of dietary and microbial exposure with compositions comprising an EGFR ligand” (Washington University, priority 2017, dated 2022).

What all share (type): in vivo, mice
The subject of one assay is CBir1 T cells. Kind of assay: Adoptive transfer of CBir1/DP1 TCR transgenic T cells. Here is the method:
Isolation of cellular populations and flow cytometry: Small intestines or colons were harvested, rinsed with PBS, and Peyer's patches or colonic patches were removed. Epithelial cellular populations were released by incubating for 15 min three times in a 37° C. rotating incubator in HBSS media (BioWhittaker, Walkersville, Md.) containing 5 mM EDTA as previously described. Isolation of splenic, MLN and lamina propria (LP) cellular populations was performed as previously described. In some experiments, single cell suspensions of MLN were cultured in cell culture media for three days as previously described. The first wash of HBSS+EDTA was used to isolate goblet cells as below. SI and colonic LP-MNPs were identified as 7AAD^−, CD45^+, CD11c^+, MHCII^+for flow cytometric sorting. Goblet cells were identified as CD45^−, CD24^−CK18^+, UEA-I^+for flow cytometric sorting as previously described. For intracellular antigens and cytokines, cells were fixed and permeabilized overnight and stained per the manufacturers recommendations (eBioscience). Flow cytometry was performed with a FACScan cytometer (BD Biosciences, San Jose, Calif.) retrofitted with additional lasers. Data acquisition was performed using CellQuest (BD Biosciences) and Rainbow (Cytek,Fremont, Calif.) or FlowJo software (Tree Star, Ashland, OR). Data analysis was performed on a Macintosh computer running FlowJo software.
Treatments to alter GAPs: Acute induction or inhibition of GAPs was performed as previously described. Mice were given 500 μg/kg tyrphostin AG1478 i.p. to inhibit of EGFR activation, 10 mg/kg U0126 i.p. to inhibit MAPK/ERK (MEK1/MEK2) activation, 150 μg/kg carbamylcholine (acetycholine analogue) i.p., 100 mg/kg tropicamide (mAChR4 selective antagonist) i.p., 1 μg recombinant murine EGF (Shenandoah) in 20 μl PBS intracolonic, 10 μg LPS intraluminally, or 100 μl stomach contents from a DOL10 mice intraluminally, or 100 μl heat killed cecal contents from SPF housed adult mice intraluminally. Reagents from Sigma Aldrich, St. Louis, Mo. unless otherwise noted.
Adoptive T cell Transfer: 10^5 splenic CD4^+ T cells from CD45.1 CBir1 TCR transgenic mice, CD45.1+ DP1 TCR transgenic mice, or CD45.1+ OTII TCR transgenic mouse were enriched by magnetic particles (Stemcell Technology, #19752 Vancouver, British Columbia, Canada) and injected i.v. into mice. In some experiments cells were labeled with CFSE prior to injection, and MLNs of recipient mice were analyzed three days posts transfer. Mice were analyzed seven days posts transfer to evaluate the presence of the transferred population in the LP. In some experiments, in FIG. 34, FIG. 37, and FIG. 39, cells were transferred on DOL 16, and analyzed on DOL 30 or after 8 days of DSS treatment on DOL 38.

The subject of assay [1] is colonic LP Tregs (FoxP3+). The assay is described as follows: Colonic LP Treg/iTreg populations by flow cytometry after early-life manipulation. As for the experimental part: EGFRi treatment: Mice were injected with 500 μg/kg tyrphostin AG1478 (an inhibitor of EGFR phosphorylation) in the neonatal, post-neonatal, or weaned phase on DOLs noted in the text or figure legends.
Isolation of cellular populations and flow cytometry: Sls or colons were harvested, rinsed with PBS, and Peyer's patches or colonic patches were removed. Epithelial cellular populations were released by incubating for 15 min three times in a 37° C. rotating incubator in HBSS media (BioWhittaker, Walkersville, Md.) containing 5 mM EDTA, and splenic and LP cellular populations were isolated as described. SI and colonic APCs were identified as 7AAD^−, CD45^+, CD11c^+, MHCII^+ for flow cytometric sorting. FoxP3 subpopulations were identified as 7AAD^−, CD45^+, CD3^+, CD4^+, FoxP3^+, and either RORγt^+ or Helios^+. For intracellular antigens and cytokines, cells were fixed, permeabilized overnight, and stained per the manufacturers recommendations (eBioscience). Flow cytometry was performed with a FACScan cytometer (BD Biosciences, San Jose, Calif.) retrofitted with additional lasers. Data acquisition was performed using CellQuest (BD Biosciences) and Rainbow (Cytek, Fremont, Calif.) or FlowJo software (Tree Star, Ashland, Oreg.). Data analysis was performed on a Macintosh computer running FlowJo software.
(A flow cytometer gives signals particle by particle.)

Assay [2] in a line: Serum cytokines and immunoglobulins by ELISA/multiplex after Ova rechallenge. The note with it: dietary Ova DOL 0-30; EGFRi DOL 6 and 8 or DOL 24 and 26. For orientation: ELISA stands for enzyme-linked immunosorbent assay.
Experimental: Measurement of cytokines, EGF, and immunoglobulins: Cytokines were measured using the MILLIPLEX MAP Mouse Cytokine/Chemokine Magnetic Bead Panel (see e.g., FIG. 16D; EMD Millipore) or using ELISAs for EGF (R&D systems), IL13 (eBioscience), Eotaxin (R&D systems), IgE (eBiosciences), and MCPT1 (eBioscience) per the manufacturers recommendations. An ELISA comprised of Ova (Sigma-Aldrich A5503) for capture, and monoclonal anti-IgE antibody conjugated to alkaline phosphatase (Southern Biotech 1110-04) for detection, was used to measure Ova specific IgE.
The mark [3] stands for this setting: intracolonic EGF DOL10-21, transfer DOL16.
[4] abbreviates: EGFR inhibitors on DOL24 and 26 post-weaning.

For the compound “EGF: recombinant murine EGF (Shenandoah); EGFR ligand, given luminally or intracolonically”, in the assay on CBir1 T cells (setting [3]), the “Foxp3 expression of transferred CBir1 T cells on DOL30” value is reported as “significantly less Foxp3” and the “expansion of transferred CBir1 T cells in colon LP on DOL30” value was “significantly less expansion”. For the same compound, in the assay on CBir1 T cells (intracolonic EGF DOL10-21, vs PBS treated control mice), the “inflammatory cytokine expression (IL-17, TNFα, IFNγ) of CBir1 T cells on DOL30” value is “significantly larger proportion of the remaining CBir1 T cell population expressed inflammatory cytokines”. Further, the “expansion of CBir1 cells in the colon draining MLN three days post transfer” value in the assay with CBir1 T cells (post-neonatal mice, intracolonic recombinant EGF (1 μg daily DOL10-21)) is given as “failed to expand”.
With `COc1cc2ncnc(Nc3cccc(Cl)c3)c2cc1OC` [EGFRi, tyrphostin AG1478], the “colonic LP Treg population, pattern and timing” value (“colonic LP Treg population” for short) in assay [1] (EGFRi in neonatal phase, DOL 6 and 8) was “early peaks in colonic LP Tregs; these peaks rapidly decreased and were not maintained”. In addition, the “colonic LP Treg population” value in assay [1] (EGFRi in post-neonatal phase, DOL 14 and 16) was “resembled the endogenous Treg population of non-manipulated animals”. The “colonic LP Treg population” value in assay [1] (EGFRi on DOL 24 and 26 (beyond weaning)) is recorded as “rapidly lost the colonic Treg population”. Besides, the “persistence of the diminished iTreg population” value in assay [1] (after manipulation of colonic GAPs (EGFRi neonatal or weaning phase)) was “at least 8 months”. Besides, in assay [2], the “other immunoglobulins, Th1 and Th17 cytokines in serum” value is listed as “did not have elevations in other immunoglobulins or prototypic Th1 or Th17 cytokines”; the “serum Th2 mediators and IgE” value is “markedly elevated serum levels of Th2 mediators, and global and antigen-specific IgE”. Also, in the assay on CBir1 T cells (setting [4]), the “Foxp3 expression of transferred CBir1 T cells on DOL30” value is recorded as “significantly less Foxp3” and the “inflammatory cytokine expression of CBir1 T cells on DOL30” value is given as “significantly greater proportion of the population expressed inflammatory cytokines”. Moreover, in the assay with CBir1 T cells (antigen encounter post-weaning, DOL28, under EGFR inhibition), the “Foxp3 expression of CBir1 and DP1 T cells in colon LP seven days post transfer” value was “little Foxp3 expression”. Besides, in the assay with CBir1 T cells (inhibition of EGFR on DOL14 and 16 (post-neonatal phase), vs controls), the “Foxp3 and inflammatory cytokine expression of transferred CBir1 T cells on DOL30” value is on record as “no significant difference in the expression of Foxp3+ or inflammatory cytokines”. Besides, the “expansion of transferred CBir1 T cells in colon LP on DOL30” value in the assay on CBir1 T cells (inhibition of EGFR on DOL14 and 16 or on DOL24 and 26) is “did not affect the expansion of transferred CBir1 T cells”. Moreover, the “expansion and activation of transferred CBir1 or DP1 cells in the MLN” value in the assay with CBir1 T cells (post-weaning mice (DOL28), three days after transfer) was “allowed adoptively transferred CBir1 or DP1 cells to expand and become activated”.
